Assay results reported in patent US9221900B2, “Methods for identifying safe and functional humanized antibodies” (AC IMMUNE S.A., priority 2010, dated 2015).

Experiments:
[1] = tested on: mouse embryonic cortical neurons; assay: Aβ1-42-induced degeneration of embryonic cortical neurons, TuJ1 immunofluorescence; type: cell-based; details: Aβ1-42 with MABT for four days
Procedure: FIG. 2 provides graphs and immunocytochemical images corresponding to the experiments described in Example 6.3. […] An MTT assay was used to determine cell viability as described in the Methods section. The means (±SEM) of five independent experiments are shown. *P<0.05, **P<0.01. […] Neurotoxicity following extended Aβ1-42 oligomer treatment was tested by morphological analyses (C).
A non-specific IgG monoclonal antibody was used as a control in all experiments.
The cytotoxicity of Aβ1-42 oligomers was tested on mixed cortical cultures at DIV 5. All antibodies, at a final concentration of 100 μg/mL, were co-incubated with Aβ1-42 oligomers for 30 min in serum-free cell culture medium at 37° C. before treatment of cells. For some experiments, mixed cortical cultures were pre-treated for 1 h with 1 μM SB239063, a potent second-generation p38 inhibitor, before treatment with Aβ1-42 oligomers. […] Briefly, for the last 3 h of treatment, cells grown in 96-well plates (Costar) were incubated with the MTT dye solution and the generation of a blue formazan product was measured by reading absorbance at 570 and 690 nm using a plate reader (Tecan). […] A FITC-labeled secondary antibody was used to visualize microtubules using fluorescence microscopy.

APP/PS1 mice = assay: In vivo two-photon imaging of amyloid plaques; parameters: species or system mouse; details: systemic dosing; tracked over multiple weeks
Procedure: FIG. 11 provides In vivo imaging of Aβ plaques in APP/PS1 mice treated with anti-beta amyloid antibody was performed. Systemic dosing of MABT modulates individual amyloid plaques in vivo. Amyloid plaques in APP/PS1 animals were labeled with Methoxy-X04 injected I.P., visualized by in vivo two-photon microscopy and tracked over multiple weeks (A). The relative change in plaque volume over time plotted as fold-increase from the initial imaging session (B).
Cranial windows were implanted above the somatosensory cortex of 10-month old APP hAPP(V717I)/PS1 mice, as previously described (Trachtenberg et al 2002, Holtmaat et al 2009), 2 weeks before the initial imaging session. Twenty-four hours prior to each imaging session animals were injected with 10 mg/kg Methoxy-X04 I.P. to visualize individual amyloid plaques (Klunk et al 2002) and immediately prior to imaging injected I.V. with AngioSense680 (VisEn Medical) to visualize blood vessels. For each imaging session animals were anesthetized with an isoflurane-oxygen mixture and mounted to the microscope using a head post. Images were collected via a two-photon laser scanning microscope (Ultima in vivo; Prairie Technologies) using a Ti:sapphire laser (MaiTai DeepSee; Spectra Physics) tuned to 820 nm delivering ˜30 mW to the back-focal plane of a 40× NA 0.8 objective lens (Olympus). […]

[2] = tested on: Aβ plaques in the brains of transgenic mice expressing hAPP; assay: Immunostaining of Aβ plaques in brain sections of hAPP transgenic mice; type: binding; details: hAPP transgenic mouse brain sections
Text: FIG. 1 provides graphs and immunohistochemical images corresponding to the experiments described in Example 6.1 and 6.2. […] As a control, an anti-Aβ IgG monoclonal antibody with a N-terminal epitope was used. […] The mean (±SEM) of two assays is shown.

enriched microglia = assay: TNFα release by enriched microglia; type: cell-based, rat; details: 24 h of treatment
Procedure: FIG. 6 provides a graph corresponding to the experiments described in Example 6.6. […] The release of TNFα by enriched microglia was measured following 24 h of treatment (see Methods). The mean (±SEM) of three independent experiments is shown. Statistical analysis was done using one-way ANOVA followed by Tukey post-hoc multiple comparison.
To link the increased microglia activity more directly to a downstream pro-inflammatory readout, the TNFα release by primary cell cultures enriched for microglia was measured ([…] Iba1^+, not shown). The release of pro-inflammatory TNFα by enriched microglia when treated with Aβ1-42 oligomers was reduced in the presence of all anti-Aβ monoclonal antibodies tested (FIG. 6). […] Thus, an anti-Aβ IgG4 monoclonal antibody may have a more desirable profile as compared to an anti-Aβ IgG1 monoclonal antibody, combining neuroprotective effects and ability to promote Aβ engulfment by microglia with limited microglial activation.
Rat cortical cultures enriched for microglia (>60% Iba1^+ of total DAPI^+ cells) were treated with 10 μM Aβ1-42 oligomers with or without 100 μg/mL antibodies for 6 h and 24 h. LPS (Sigma) at 1 μg/mL was used as a positive control stimulus. […]

binding to Aβ plaques [2]: immunodecorated
Substance: MABT: humanized anti-Aβ monoclonal antibody of IgG4 isotype, affinity matured and humanized form of mouse mMABT
neuronal morphology after Aβ1-42 treatment [1]: appeared similar to control cells
individual plaque volume (APP/PS1 mice): decreased in volume
release of TNFα by enriched microglia treated with Aβ1-42 oligomers (enriched microglia): greatest effect
